Experimental data: patent US20250059182A1, “SOS1 INHIBITORS” (Mirati Therapeutics, Inc., priority 2021, published 2025)
Counter-ions that a name gives are not always drawn.

system: pERK in MKN1 cells; experiment: pERK inhibition, In-Cell Western (LI-COR Odyssey), MKN1 cells; format: cell-based; conditions: Homo sapiens, MKN-1, Table B1; MKN1 or H358 cells (table does not say which); 0.5-1 hour incubation; read-out: IC50 (nM), pERK inhibition
Protocol: This Example illustrates that exemplary compounds of the present invention prevent KRas-mediated GTP nucleotide exchange mediated by SOS1 to inhibit KRas activity thereby inhibiting the generation of the downstream effector pERK.
MKN1 cells (15,000/w) or H358 (30,000/w) were seeded in a black clear flat bottom 96-well cell culture plate (Corning, #3904) and incubated at 37° C. overnight. Assay day 1, cells were dosed with compounds of Formula (I) with a 10 μm starting concentration and serially diluted 3× for a total of 9 concentrations. The cells were incubated for approximately 0.5-1 hour with the compounds solubilized in DMSO at 37° C. Cells were immediately fixed by adding 50 μL of 4% formaldehyde to all wells in a fume hood and the plates were incubated for 20 minutes at room temperature. The formaldehyde was discarded from the plates and 150 μL of ice-cold methanol was added to permeabilize the cells for 10 minutes at −20° C. The methanol was discarded from each of the plates and any liquid remaining in the plate by tapping the plate against paper towels. Cells were then blocked with 150 μL of Odyssey blocking buffer (LI-COR Biosciences #927-50010) using 0.05% Tween for 1 hour at room temperature on a shaker. The blocking buffer was discarded and 50 μL of primary antibodies pERK (cell signaling Technology #9101L; Rabbit, 1:500) and GapDH (Millipore #MAB34; Mouse, 1:5000) diluted in Odyssey blocking buffer was added. The plates were incubated overnight at 4° C. on a shaker.
On Assay day 2, the primary antibody solution was removed. Each plate was washed 3× times with 150 μL of 1×PBST (PBS+0.1% Tween 20) and incubated with 50 μL of secondary antibodies: Anti-Rabbit (LI-COR Biosciences #926-32211) and Anti-Mouse (LI-COR Biosciences #68070) at 1:800 dilution in Odyssey blocking buffer with Tween at room temperature on a shaker for 2 hours (protected from light). The secondary antibody solution as removed and each plate was washed with PBST 3× times. Any liquid remaining was discarded and the plate was imaged using the Licor Odyssey machine according to the manufacturer's instruction, using a set focus length at 3 mm and both 800 nm and 700 nm filters. The GAPDH normalized scan values for each well were divided by the average of vehicle wells to get the % of pERK inhibition. The IC50 values were then calculated with the Graph pad Prism software.

| SMILES | IC50 |
| --- | --- |
| Cc1c(C#N)cccc1[C@@H](C)Nc1nnc(C)c2cnc(N3CCc4nn(C)cc4C3)cc12 [Example P-51, (R)-2-methyl-3-(1-((4-methyl-7-(2-methyl-2,4,6,7-tetrahydro-5H-pyrazolo[4,3-c]pyridin-5-yl)pyrido[3,4-d]pyridazin-1-yl)amino)ethyl)benzonitrile] | 120 nM |
| Cc1c(C#N)cccc1[C@@H](C)Nc1nnc(C)c2c(C)nc(N3CCN(C)CC3)cc12 [Example P-189, (R)-3-(1-((4,5-dimethyl-7-(4-methylpiperazin-1-yl)pyrido[3,4-d]pyridazin-1-yl)amino)ethyl)-2-methylbenzonitrile] | 57 nM |
| Cc1c(C#N)cccc1[C@@H](C)Nc1nnc(C)c2cnc(N3CCC34CN(CCCF)C4)cc12 [Example P-228, (R)-3-(1-((7-(6-(3-fluoropropyl)-1,6-diazaspiro[3.3]heptan-1-yl)-4-methylpyrido[3,4-d]pyridazin-1-yl)amino)ethyl)-2-methylbenzonitrile] | 68.4 nM |

same assay, conditions: Homo sapiens, MKN-1, Table B; MKN1 or H358 cells (table does not say which); 0.5-1 hour incubation; read-out: IC50 (nM), pERK inhibition

| SMILES | IC50 |
| --- | --- |
| Cc1c(C#N)cccc1[C@@H](C)Nc1nnc(C)c2cc(Cl)c(N3CCOCC3)cc12 [7-2, (R)-3-(1-((6-chloro-4-methyl-7-morpholinophthalazin-1-yl)amino)ethyl)-2-methylbenzonitrile] | 286 nM |
| Cc1nnc(N[C@H](C)c2cccc(C(F)(F)F)c2F)c2cc(N(C)[C@H]3CCN(C)C3)ncc12 [Example 1-28, N^1-((R)-1-(2-fluoro-3-(trifluoromethyl)phenyl)ethyl)-N^7,4-dimethyl-N^7-((S)-1-methylpyrrolidin-3-yl)pyrido[3,4-d]pyridazine-1,7-diamine] | 52.3 nM |
| Cc1nnc(N[C@H](C)c2cccc(C(F)(F)F)c2F)c2cc(N(C)[C@@H]3CCN(C)C3)ncc12 [Example 1-29, N^1-((R)-1-(2-fluoro-3-(trifluoromethyl)phenyl)ethyl)-N^7,4-dimethyl-N^7-((R)-1-methylpyrrolidin-3-yl)pyrido[3,4-d]pyridazine-1,7-diamine] | 41 nM |
| Cc1c(C#N)cccc1[C@@H](C)Nc1nnc(C)c2cnc(N[C@H]3CCN(C)C3)cc12 [Example 1-30, 2-methyl-3-((R)-1-((4-methyl-7-(((S)-1-methylpyrrolidin-3-yl)amino)pyrido[3,4-d]pyridazin-1-yl)amino)ethyl)benzonitrile] | 250 nM |
| Cc1c(C#N)cccc1[C@@H](C)Nc1nnc(C)c2cnc(N[C@@H]3CCN(C)C3)cc12 [Example 1-31, 2-methyl-3-((R)-1-((4-methyl-7-(((R)-1-methylpyrrolidin-3-yl)amino)pyrido[3,4-d]pyridazin-1-yl)amino)ethyl)benzonitrile] | 128 nM |
| Cc1c(C#N)cccc1[C@@H](C)Nc1nnc(C)c2cnc(N3CCN(C)C(=O)C3)cc12 [Example 1-45, (R)-2-methyl-3-(1-((4-methyl-7-(4-methyl-3-oxopiperazin-1-yl)pyrido[3,4-d]pyridazin-1-yl)amino)ethyl)benzonitrile] | 99 nM |
| Cc1c(C#N)cccc1[C@@H](C)Nc1nnc(C)c2cnc(N3C[C@@H](C)N(C)[C@@H](C)C3)cc12 [Example 1-67, 2-methyl-3-((R)-1-((4-methyl-7-((3R,5S)-3,4,5-trimethylpiperazin-1-yl)pyrido[3,4-d]pyridazin-1-yl)amino)ethyl)benzonitrile] | 121 nM |
| Cc1c(C#N)cccc1[C@@H](C)Nc1nnc(C)c2cnc(N3C[C@H](C)N(C)[C@@H](C)C3)cc12 [Example 1-68, 2-methyl-3-((R)-1-((4-methyl-7-((3S,5S)-3,4,5-trimethylpiperazin-1-yl)pyrido[3,4-d]pyridazin-1-yl)amino)ethyl)benzonitrile] | 61 nM |
| Cc1c(C#N)cccc1[C@@H](C)Nc1nnc(C)c2cnc(N3C[C@@H]4C[C@H]3CN4)cc12 [Example 1-75, 3-((R)-1-((7-((1S,4S)-2,5-diazabicyclo[2.2.1]heptan-2-yl)-4-methylpyrido[3,4-d]pyridazin-1-yl)amino)ethyl)-2-methylbenzonitrile] | 590 nM |
| Cc1c(C#N)cccc1[C@@H](C)Nc1nnc(C)c2cnc(N(C)[C@@H]3CCN(C(C)C)C3)cc12 [Example 1-78, 3-((R)-1-((7-(((R)-1-isopropylpyrrolidin-3-yl)(methyl)amino)-4-methylpyrido[3,4-d]pyridazin-1-yl)amino)ethyl)-2-methylbenzonitrile] | 53.9 nM |
| Cc1c(C#N)cccc1[C@@H](C)Nc1nnc(C)c2cnc(N(C)[C@H]3CCN(C(C)C)C3)cc12 [Example 1-79, 3-((R)-1-((7-(((S)-1-isopropylpyrrolidin-3-yl)(methyl)amino)-4-methylpyrido[3,4-d]pyridazin-1-yl)amino)ethyl)-2-methylbenzonitrile] | 75.2 nM |
| Cc1c(C#N)cccc1[C@@H](C)Nc1nnc(C)c2cnc(N3CC4(COC4)C3)cc12 [Example 1-80, (R)-2-methyl-3-(1-((4-methyl-7-(2-oxa-6-azaspiro[3.3]heptan-6-yl)pyrido[3,4-d]pyridazin-1-yl)amino)ethyl)benzonitrile] | 60.9 nM |
| Cc1nnc(N[C@H](C)c2ccc(C#N)cc2F)c2cc(N3CCN(C)CC3)ncc12 [Example 1-98, (R)-3-fluoro-4-(1-((4-methyl-7-(4-methylpiperazin-1-yl)pyrido[3,4-d]pyridazin-1-yl)amino)ethyl)benzonitrile] | 186 nM |
| Cc1c(C#N)cccc1[C@@H](C)Nc1nnc(C)c2cc(F)c(N3CC(C)(N(C)C)C3)cc12 [Example 4-8, (R)-3-(1-((7-(3-(dimethylamino)-3-methylazetidin-1-yl)-6-fluoro-4-methylphthalazin-1-yl)amino)ethyl)-2-methylbenzonitrile] | 109 nM |
| Cc1c(C#N)cccc1[C@@H](C)Nc1nnc(C)c2cc(F)c(N3CCOCC3)cc12 [Example 4-12, (R)-3-(1-((6-fluoro-4-methyl-7-morpholinophthalazin-1-yl)amino)ethyl)-2-methylbenzonitrile] | 120 nM |
| COc1cc2c(C)nnc(N[C@H](C)c3cccc(C#N)c3C)c2cc1O[C@H]1CCOC1 [Example 6-15, 3-((R)-1-((6-methoxy-4-methyl-7-(((S)-tetrahydrofuran-3-yl)oxy)phthalazin-1-yl)amino)ethyl)-2-methylbenzonitrile] | 165 nM |

same assay, conditions: Homo sapiens, MKN-1, read-out: IC50 (nM), pERK inhibition

| SMILES | IC50 |
| --- | --- |
| COc1cc2cnnc(N[C@H](C)c3cccc4ccccc34)c2cc1OC [Example P-210, (R)-6,7-dimethoxy-N-(1-(naphthalen-1-yl)ethyl)phthalazin-1-amine formic acid salt] | > 10000 nM |
| Cc1c(Br)cccc1[C@@H](C)Nc1nnc(C)c2cnc(N3CCOCC3)cc12 [Example P-213, (R)-N-(1-(3-bromo-2-methylphenyl)ethyl)-4-methyl-7-morpholinopyrido[3,4-d]pyridazin-1-amine formic acid salt] | 114 nM |

target: T1, recombinant human SOS1 polypeptide (amino acids 560-1049) (Homo sapiens, UniProt Q07889); experiment: HTRF displacement assay: inhibition of labeled tracer binding to SOS1; conditions: Table A, Morrison equation for competitive binding
T1 construct: corresponding to amino acids 560-1049, expressed in E. Coli; made in house; host or cells: E. coli
T1 sequence (Q07889 560-1049): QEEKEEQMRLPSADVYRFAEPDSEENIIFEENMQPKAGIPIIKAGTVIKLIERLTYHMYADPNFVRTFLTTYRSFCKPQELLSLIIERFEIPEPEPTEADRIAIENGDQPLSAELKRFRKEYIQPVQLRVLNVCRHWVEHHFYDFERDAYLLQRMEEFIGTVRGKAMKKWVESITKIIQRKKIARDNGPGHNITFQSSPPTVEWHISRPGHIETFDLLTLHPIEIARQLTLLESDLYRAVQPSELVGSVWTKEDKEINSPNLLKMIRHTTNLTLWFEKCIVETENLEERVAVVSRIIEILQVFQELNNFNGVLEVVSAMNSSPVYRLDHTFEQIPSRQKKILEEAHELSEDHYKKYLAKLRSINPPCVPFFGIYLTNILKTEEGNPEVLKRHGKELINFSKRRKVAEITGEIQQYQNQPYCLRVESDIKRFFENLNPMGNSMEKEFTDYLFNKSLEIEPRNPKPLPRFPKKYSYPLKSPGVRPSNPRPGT

| SMILES | Ki |
| --- | --- |
| Cc1nnc(N[C@H](C)c2cccc(C(F)F)c2F)c2cc(N3CCN(C)CC3)c(F)cc12 [Example 4-20, (R)-N-(1-(3-(difluoromethyl)-2-fluorophenyl)ethyl)-6-fluoro-4-methyl-7-(4-methylpiperazin-1-yl)phthalazin-1-amine] | 0.547 nM |
| Cc1nnc(N[C@H](C)c2cccc(C(C)(F)F)c2F)c2cc(N3CCN(C)CC3)c(C#N)cc12 [Example 6-21, (R)-1-((1-(3-(1,1-difluoroethyl)-2-fluorophenyl)ethyl)amino)-4-methyl-7-(4-methylpiperazin-1-yl)phthalazine-6-carbonitrile] | 1.05 nM |
